The target of experiment [1] is biotinylated human IL-17A / AF647-labeled human IL-17RA (Homo sapiens, UniProt Q16552). Nature of the experiment: Human IL-17A×IL-17RA TR-FRET assay. The format is binding. The note with it: biotinylated human IL-17A 5 nM, AF647-labeled human IL-17RA 30 nM. Summed up:
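Compounds tested in duplicate at each concentration; neutral controls contain all components with DMSO in place of compound.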

Experiment [2] addresses recombinant human IL-17AA (Homo sapiens, UniProt Q16552). The experiment in a line: IL-6 release from NHDF cells, IL-17AA plus TNF-α stimulation. It counts as cell-based. To be noted: IL-17AA 30 pM plus TNF-α 6 pM, 24 hours, IL-6 by ELISA. Summed up: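 IL-17-specific IL-6 release from NHDF cells adhered overnight; compounds pre-incubated 30 min at room temperature with human IL-17AA plus TNF-α, then 24 h on cells at 37° C. Final DMSO 0.1% or plasma 20%; IL-6 by ELISA (450 nm). TNF-α-only IL-6 subtracted before IC50 fit.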
A general note: An ELISA detects its analyte on a solid surface through an enzyme-linked reagent.

[3] abbreviates: IL17AA FRET/ IL17Rawt IC50, TR-FRET.
Setting [4] is: IL17AA + TNF IC50 IL-6, NHDF cells.
[5] abbreviates: TR-FRET, read-out: IL17AA FRET/ IL17Rawt IC50.
Setting [6] is: NHDF cells, read-out: IL17AA + TNF IC50 IL-6.

pIC50: −log10 of the molar value. Like-named read-outs stand apart in the source and are kept apart here.

Our source for the IC50 values is US12600728B2, “Interleukin-17 inhibitors” (priority 2020, dated 2026).

recombinant human IL-17AA, sequence (Q16552 24-155): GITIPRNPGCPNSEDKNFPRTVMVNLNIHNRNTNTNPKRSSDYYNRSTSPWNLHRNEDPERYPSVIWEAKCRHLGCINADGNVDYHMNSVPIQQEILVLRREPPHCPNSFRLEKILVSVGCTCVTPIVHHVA
biotinylated human IL-17A / AF647-labeled human IL-17RA, sequence (Q16552 24-155): as above

`Cc1cc[n+]([O-])c(C)c1-c1ccc(NC(=O)C(NC(=O)c2ccnn2C)C2CCC(C)CC2)cc1F` [Example 84, 3-(2-fluoro-4-((S)-2-(1-methyl-1H-pyrazole-5-carboxamido)-2-((1r,4S)-4-methylcyclohexyl)acetamido)phenyl)-2,4-dimethylpyridine 1-oxide]: the pIC50 in experiment [1] (setting [3]) was 7.85; in experiment [2] (setting [4]) it was 8.10.

Turning to `Cc1cc[n+]([O-])c(C)c1-c1ccc(NC(=O)[C@@H](NC(=O)c2ccnn2C)C2CCC(F)(F)C2)cc1` (stereo partly drawn) [Example 87, 3-(4-((2S)-2-(3,3-difluorocyclopentyl)-2-(1-methyl-1H-pyrazole-5-carboxamido)acetamido)phenyl)-2,4-dimethylpyridine 1-oxide], the pIC50 is 6.31 in experiment [1] (setting [5]) and 6.30 in experiment [2] (setting [6]).

Turning to `Cc1cc[n+]([O-])c(Cl)c1-c1ccc(NC(=O)[C@@H](NC(=O)c2ccnn2C)C2CCCCC2)cc1` [Example 89, (S)-2-chloro-3-(4-(2-cyclohexyl-2-(1-methyl-1H-pyrazole-5-carboxamido)acetamido)phenyl)-4-methylpyridine 1-oxide], the figures for the pIC50 in experiment [1] (setting [5]) and in experiment [2] (setting [6]) were 6.54 and 7.08, respectively.

With `COCc1nocc1C(=O)N[C@H](C(=O)Nc1ccc(-c2c(Cl)cc[n+]([O-])c2C)c(F)c1)C1CCCCC1` [Example 90, 4-chloro-3-(4-((S)-2-cyclohexyl-2-(3-(methoxymethyl)isoxazole-4-carboxamido)acetamido)-2-fluorophenyl)-2-methylpyridine 1-oxide], the pIC50 in experiment [1] (setting [5]) is 7.19; in experiment [2] (setting [6]), 8.30.

Consider `Cc1cc[n+]([O-])c(C)c1-c1ccc(NC(=O)C(NC(=O)c2ccnn2C)C2CCC(C(F)(F)F)CC2)cc1F` [Example 91, 3-(2-fluoro-4-((S)-2-(1-methyl-1H-pyrazole-5-carboxamido)-2-((1r,4S)-4-(trifluoromethyl)cyclohexyl)acetamido)phenyl)-2,4-dimethylpyridine 1-oxide], for which the pIC50 in experiment [1] (setting [3]) was 6.87; in experiment [2] (setting [4]), 7.41.

In the case of `Cc1c(-c2ccc(NC(=O)[C@@H](NC(=O)c3ccnn3C)C3CCCCC3)cc2F)cc(Cl)c[n+]1[O-]` [Example 92, (S)-5-chloro-3-(4-(2-cyclohexyl-2-(1-methyl-1H-pyrazole-5-carboxamido)acetamido)-2-fluorophenyl)-2-methylpyridine 1-oxide], the pIC50 is 6.43 in experiment [1] (setting [5]) and 7.55 in experiment [2] (setting [6]).

For `Cn1nccc1C(=O)N[C@H](C(=O)Nc1ccc(-c2c[n+]([O-])ccc2Cl)c(F)c1)C1CCCCC1` [Example 93, (S)-4-chloro-3-(4-(2-cyclohexyl-2-(1-methyl-1H-pyrazole-5-carboxamido)acetamido)-2-fluorophenyl)pyridine 1-oxide], the figures for the pIC50 in experiment [1] (setting [5]) and in experiment [2] (setting [6]) were 6.22 and 7.24, respectively.

Turning to `Cc1cc[n+]([O-])c(C)c1-c1ccc(NC(=O)[C@@H](NC(=O)c2ccnn2C2CC2)C2CCCCC2)cc1` [Example 94, (S)-3-(4-(2-cyclohexyl-2-(1-cyclopropyl-1H-pyrazole-5-carboxamido)acetamido)phenyl)-2,4-dimethylpyridine 1-oxide], the figures for the pIC50 in experiment [1] (setting [5]) and in experiment [2] (setting [6]) were 6.89 and 7.33, respectively.

As to `Cc1cc[n+]([O-])c(C)c1-c1ccc(NC(=O)[C@@H](NC(=O)c2ccnn2C)C2CCCCC2)cc1F` [Example 95, 3-(4-((S)-2-cyclohexyl-2-(1-methyl-1H-pyrazole-5-carboxamido)acetamido)-2-fluorophenyl)-2,4-dimethylpyridine 1-oxide], the pIC50 in experiment [1] (setting [5]) was 6.90; in experiment [2] (setting [6]), 7.72.

On to `Cc1cc[n+]([O-])c(C)c1-c1ccc(NC(=O)[C@@H](NC(=O)c2ccnn2C(C)C)C2CCCCC2)cc1F` [Example 96, 3-(4-((S)-2-cyclohexyl-2-(1-isopropyl-1H-pyrazole-5-carboxamido)acetamido)-2-fluorophenyl)-2,4-dimethylpyridine 1-oxide], for which the pIC50 in experiment [1] (setting [5]) is 7.15; in experiment [2] (setting [6]), 8.15.

In the case of `Cc1c[n+]([O-])cc(C)c1-c1ccc(NC(=O)[C@@H](NC(=O)c2ccnn2C)C2CCCCCC2)cc1` [Example 99, (S)-4-(4-(2-cycloheptyl-2-(1-methyl-1H-pyrazole-5-carboxamido)acetamido)phenyl)-3,5-dimethylpyridine 1-oxide], the pIC50 was 6.68 in experiment [1] (setting [5]) and 7.09 in experiment [2] (setting [6]).

For the compound `Cc1c[n+]([O-])cc(C)c1-c1ccc(NC(=O)[C@@H](NC(=O)c2ccnn2C2CC2)C2CCCCCC2)cc1` [Example 100, (S)-4-(4-(2-cycloheptyl-2-(1-cyclopropyl-1H-pyrazole-5-carboxamido)acetamido)phenyl)-3,5-dimethylpyridine 1-oxide], the pIC50 in experiment [1] (setting [5]) is 6.61; in experiment [2] (setting [6]) it was 7.34.

As for `Cc1c[n+]([O-])cc(C)c1-c1ccc(NC(=O)[C@@H](NC(=O)c2ccnn2C(C)C)C2CCCCCC2)cc1` [Example 101, (S)-4-(4-(2-cycloheptyl-2-(1-isopropyl-1H-pyrazole-5-carboxamido)acetamido)phenyl)-3,5-dimethylpyridine 1-oxide], the results for the pIC50 in experiment [1] (setting [5]) and in experiment [2] (setting [6]) were 7.07 and 7.66, respectively.

`Cc1c[n+]([O-])cc(C)c1-c1ccc(NC(=O)[C@@H](NC(=O)c2ccnn2C2CCC2)C2CCCCCC2)cc1` [Example 102, (S)-4-(4-(2-(1-cyclobutyl-1H-pyrazole-5-carboxamido)-2-cycloheptylacetamido)phenyl)-3,5-dimethylpyridine 1-oxide]: the pIC50 in experiment [1] (setting [5]) is 6.91; in experiment [2] (setting [6]) it was 7.77.

Regarding `Cc1c[n+]([O-])cc(C)c1-c1ccc(NC(=O)[C@@H](NC(=O)c2ccnn2C)[C@H]2CCc3ccccc3C2)cc1` [Example 103, 3,5-dimethyl-4-(4-((S)-2-(1-methyl-1H-pyrazole-5-carboxamido)-2-((S)-1,2,3,4-tetrahydronaphthalen-2-yl)acetamido)phenyl)pyridine 1-oxide], the pIC50 is 7.14 in experiment [1] (setting [5]) and 7.35 in experiment [2] (setting [6]).

In the case of `Cc1cc[n+]([O-])c(C(F)F)c1-c1ccc(NC(=O)[C@@H](NC(=O)c2ccnn2C)C2CCCCC2)cc1` [Example 104, (S)-3-(4-(2-cyclohexyl-2-(1-methyl-1H-pyrazole-5-carboxamido)acetamido)phenyl)-2-(difluoromethyl)-4-methylpyridine 1-oxide], the results for the pIC50 in experiment [1] (setting [5]) and in experiment [2] (setting [6]) were 5.80 and 6.86, respectively.

In the case of `Cc1nocc1C(=O)N[C@H](C(=O)Nc1ccc(-c2c(Cl)cc[n+]([O-])c2C)c(F)c1)C1CCC(F)(F)CC1` [Example 106, 4-chloro-3-(4-((S)-2-(4,4-difluorocyclohexyl)-2-(3-methylisoxazole-4-carboxamido)acetamido)-2-fluorophenyl)-2-methylpyridine 1-oxide], the pIC50 is 7.30 in experiment [1] (setting [5]) and 7.74 in experiment [2] (setting [6]).

`Cc1c(-c2ccc(NC(=O)[C@@H](NC(=O)c3ccnn3C)C3CCC(F)(F)CC3)cc2F)c(Cl)cc[n+]1[O-]` [Example 107, 4-chloro-3-(4-((S)-2-(4,4-difluorocyclohexyl)-2-(1-methyl-1H-pyrazole-5-carboxamido)acetamido)-2-fluorophenyl)-2-methylpyridine 1-oxide]: the figures for the pIC50 in experiment [1] (setting [5]) and in experiment [2] (setting [6]) were 7.72 and 7.82, respectively.

On to `CCn1nccc1C(=O)NC(C(=O)Nc1ccc(-c2c(Cl)cc[n+]([O-])c2C)c(F)c1)C1CCC(F)(F)CC1` (centres unmarked) [Example 108, 4-chloro-3-(4-(2-(4,4-difluorocyclohexyl)-2-(1-ethyl-1H-pyrazole-5-carboxamido)acetamido)-2-fluorophenyl)-2-methylpyridine 1-oxide], for which the pIC50 in experiment [1] (setting [3]) was 7.52; in experiment [2] (setting [4]) it was 8.15.
